Data from PubChem BioAssay AID1996.
Converted amounts (≈) assume the structure as drawn.

Conditions: buffer; pH 7.4; 200.0 µM

SMILES | solubility kinetic
Cc1ccc2c(=O)cc(C(=O)NC3CCS(=O)(=O)C3)oc2c1 (stereo unspecified) | > 48.2 µg/mL
CN(c1ccc(OCCOc2ccccc2Cl)cc1)S(=O)(=O)c1ccccc1 | 6.2 µg/mL (≈ 14.8 µM)
O=C1Cc2cc(S(=O)(=O)Nc3ccc(N4CCOCC4)cc3)ccc2N1 | > 56 µg/mL
CS(=O)(=O)N1CCN(Cc2cc(=O)n3ccsc3n2)CC1 | > 49.3 µg/mL
O=C(CN1C(=O)NC(Cc2c[nH]c3ccccc23)C1=O)NC1CC1 (stereo unspecified) | > 49 µg/mL
CCCCNC(=O)C1CC(=O)N(CCc2ccccc2)C1 (stereo unspecified) | > 43.3 µg/mL
O=C(OCc1nc2ccccc2s1)c1ccccc1O | 4.8 µg/mL (≈ 16.8 µM)
Cc1ccc(NC(=O)CCN2CCC(Cc3ccccc3)CC2)cc1 | 22.6 µg/mL (≈ 67.2 µM)
O/N=C(\c1ccccc1)C(O)c1ccccc1 (stereo unspecified) | > 34.1 µg/mL
CC[N+](C)(C)Cc1ccccc1Br.Cc1ccc(S(=O)(=O)[O-])cc1 | > 62.2 µg/mL
CCOc1ccc(Br)cc1CN(CC)CC.Cl | > 48.4 µg/mL
CCc1cc2c(=O)oc(-c3ccc(Br)cc3)nc2s1 | < 0.7 µg/mL
CC(NC(=O)COC(=O)c1ccccc1F)C1CC2CCC1C2 (stereo unspecified) | > 47.9 µg/mL
O=C(CCC(=O)c1cccs1)NCc1ccccc1Cl | 45.4 µg/mL (≈ 147 µM)
CSc1cccc(NC(=S)Nc2cc(C)ccc2C)c1 | 22.5 µg/mL (≈ 74.4 µM)
Nc1c(C(=O)O)cnn1-c1ccccc1 | > 30.5 µg/mL
Cc1noc2ncnc(N3CCN(c4ccc(F)cc4)CC3)c12 | 1.7 µg/mL (≈ 5.43 µM)
COc1cc(OC)cc(C(=O)NCc2ccc(-n3cccc3)cc2)c1 | 0.4 µg/mL (≈ 1.19 µM)
O=C(NCc1ccccc1)N1CCN(c2ccccc2)CC1 | 16.2 µg/mL (≈ 54.8 µM)
O=S(=O)(Nc1ccncc1Cl)c1ccc2ccccc2c1 | 42.3 µg/mL (≈ 133 µM)
COc1nccc(NCc2ccccc2)c1C#N | 20.1 µg/mL (≈ 84 µM)

SMILES | solubility kinetic
CN(C(=O)CN1C(=O)NC2(CCCc3ccccc32)C1=O)C1CCCCC1 (stereo unspecified) | > 55.4 µg/mL
COC(=O)Cn1c2nc3ccccc3nc2c2cccc(C)c21 | 0.2 µg/mL (≈ 0.655 µM)
O=C1CCC(C(=O)OCc2nnc(-c3ccccc3)o2)=NN1 | > 45 µg/mL
COc1cc(S(=O)(=O)NCc2ccccn2)ccc1Cl | > 46.9 µg/mL
CCOC(=O)C1CN(S(=O)(=O)c2cc(OC)ccc2OC)C1 | 48.8 µg/mL (≈ 148 µM)
CC(=O)c1ccc(NC(=S)NCc2ccco2)cc1 | > 41.2 µg/mL
CC1(C)CC(=O)c2cnc(N3CCc4ccccc43)nc2C1 | 0.4 µg/mL (≈ 1.36 µM)
N#CCc1ccc(OC(=O)c2cccnc2)cc1 | > 35.7 µg/mL
Cc1nc(CSc2nnc(N)s2)cs1 | > 36.7 µg/mL
CCCC1=[N+](CC(C)=O)CCn2c(C)ccc21.[Br-] | > 47 µg/mL
O=C(CSc1nc2ccccc2s1)Nc1ccc(C(=O)O)cc1 | > 51.7 µg/mL
CCCCNS(=O)(=O)c1cc2c3c(c1)CCN3C(=O)CC2 | 44.3 µg/mL (≈ 144 µM)
S=C(Nc1ccc(Cl)cc1Cl)N1CCCC1 | 8.6 µg/mL (≈ 31.2 µM)
COc1ccc(S(=O)(=O)NC2CC3CCC2C3)cc1 (stereo unspecified) | 36.5 µg/mL (≈ 130 µM)
COc1ccc(NC(=S)N(CCN(C)C)Cc2cccs2)cc1 | > 52.4 µg/mL
Cc1ccnc(NC(=O)CNC(=O)c2ccco2)c1 | > 38.9 µg/mL
O=S(=O)(CCNCc1cccs1)c1ccc(Cl)cc1 | 32.5 µg/mL (≈ 103 µM)
CCCCCCCc1c(O)nc(SCCN(C)C)[nH]c1=O.Cl | > 52.5 µg/mL
O=C(Cc1ccc(Cl)cc1)NCC(=O)N1CCCCC1 | 39.7 µg/mL (≈ 135 µM)
CC(=O)c1cc(C(C)=O)c(C)[n+](C)c1C.[O-][Cl+3]([O-])([O-])[O-] | 41.5 µg/mL
CCc1ccc(NC(=O)C(=O)NCc2ccccn2)cc1 | 16.1 µg/mL (≈ 56.8 µM)

SMILES | solubility kinetic
CC(C)(C)OC(=O)N1Cc2ccccc2C[C@H]1C(=O)NC1CCCC1 | > 51.7 µg/mL
COc1ccc(NC(=O)[C@@H](NC(N)=O)C(C)C)cc1Cl | > 45 µg/mL
Cc1ccc(C)c(C(=O)N2CCN(c3ncccn3)CC2)c1 | > 44.5 µg/mL
c1ccc(COCC2CCNCC2)cc1 | > 30.8 µg/mL
COc1ccc(NC(=O)COc2ccc(C)cc2)c([N+](=O)[O-])c1 | < 0.3 µg/mL
O=C(Cc1ccccc1F)Nc1ccccc1N1CCCC1 | 27.8 µg/mL (≈ 93.2 µM)
Cc1cccc(Cn2c(-c3ccc[nH]c3=O)nc3ccccc32)c1 | 36.7 µg/mL (≈ 116 µM)
CCN(CCS(=O)(=O)c1ccc(Br)cc1)Cc1nc2ccccc2c(=O)[nH]1 | 9.3 µg/mL (≈ 20.7 µM)
O=C1CSC(c2ccc(F)cc2)N1c1c(F)cccc1F (stereo unspecified) | 31.2 µg/mL (≈ 101 µM)
COc1ccc(Nc2cc(C)nc3c(C)cccc23)cc1OC | > 46.3 µg/mL
CC(NC(=O)CN1CCOCC1)c1ccccc1 (stereo unspecified) | > 37.2 µg/mL
CC1Sc2ccc(C(=O)NCc3ccccn3)cc2NC1=O (stereo unspecified) | 45.6 µg/mL (≈ 146 µM)
O=S(=O)(O)c1cnccc1Nc1cccc(C(F)(F)F)c1 | > 47.7 µg/mL
COc1ccc(N2CCN(CC(=O)NC(C)c3ccccc3)CC2)cc1 (stereo unspecified) | 45.1 µg/mL (≈ 128 µM)
O=C(CCCOc1ccccc1)Nc1ccc(Cl)c(S(=O)(=O)N2CCOCC2)c1 | 25.7 µg/mL (≈ 58.6 µM)
CC1(C)CC(=O)C=C(Nc2ccccc2N)C1 | > 34.5 µg/mL
Br.CC(Cc1ccc(O)cc1)NCC(O)c1cc(O)cc(O)c1 (stereo unspecified) | > 57.6 µg/mL
Nc1nc(-c2ccc(S(=O)(=O)N3CCCCC3)cc2)cs1 | 6.6 µg/mL (≈ 20.4 µM)
COc1ccc(CN2C(=O)c3ccc(C(=O)O)cc3C2=O)cc1 | > 46.7 µg/mL
